Assay results taken from publication PMC7955031, “Facile accelerated specific therapeutic (FAST) platform develops antisense therapies to counter multidrug-resistant bacteria” (Communications Biology, 2021).

Tests used:
[1] = system: ESBL KPN; assay: Antibiotic resistance screening (MIC); format: cell-based, Klebsiella pneumoniae; conditions: for Antibiotic resistance characterization (R/S/I): 24 h
Protocol: (§1) The clinical isolates were obtained from the lab of Nancy Madinger at the University of Colorado Anschutz campus. Clinical isolates were grown in Cation Adjusted Mueller–Hinton broth (CAMHB) (Becton, Dickinson and Company 212322) at 37 °C with 225 rpm shaking or on solid CAMHB with 1.5% agar at 37 °C. Clinical isolates were maintained as freezer stocks in […], 40% glycerol at −80 °C. Freezer stocks were streaked out onto solid CAMHB and incubated for 16 h to produce single colonies prior to experiments. For each biological replicate, a single colony was picked from solid media and grown for 16 h in liquid CAMHB prior to experiments. Non-clinical isolates, such as E. coli MG1655 (ATCC700926) and Salmonella enterica serovar Typhimurium SL1344, expressing GFP from the chromosome (rpsm::gfp)[54], were cultured in liquid 2% lysogeny broth (LB) or on 2% LB with 1.5% agar for solid plates. SL1344 cultures were supplemented with 30 µg/mL streptomycin and SL1344 strains containing plasmids pFPV (target STm) or pRG1 modified with a lacIq promotor (SL1344-holin) were supplemented with 100 µg/mL ampicillin. Freezer stocks were stored in 60% LB broth, 40% glycerol at −80 °C. Freezer stocks were streaked out onto solid LB and incubated for 16 h to produce single colonies before experiments. For biological replicates, single colonies were started in liquid LB and grown for 16 h prior to experiments. E. coli MG1655 PNA growth experiments were carried out in M9 media (1x M9 minimal media salts solution (MP Biomedicals), 2.0 mM MgSO4, and 0.1 mM CaCl2 in sterile water) with 0.4% glucose.
Sensitive/resistant breakpoints were taken from the 2016–2017 Clinical & Laboratory Standards Institute report[41] (Table S1). Liquid cultures of the clinical strains were diluted to a 0.5 McFarland standard and added to the respective antibiotic test condition. […] Strains were “sensitive” if the MIC was equal to or below the sensitive-breakpoint concentration, “resistant” if the MIC was greater than or equal to the resistant-breakpoint concentration, and “intermediate” if the MIC was in-between.

[2] = system: CRE E. coli; format: cell-based, Escherichia coli; conditions: concentration range at which 90% of growth inhibition occurs at 24 hours, Table S2
Protocol: as §1, with “For biological replicates, single colonies were started in liquid LB and grown for 16 h prior to experiments. E. coli MG1655 PNA growth experiments were carried out in M9 media (1x M9 minimal media salts solution (MP Biomedicals), 2.0 mM MgSO4, and 0.1 mM CaCl2 in sterile water) with 0.4% glucose.” left out

[3] = system: MDR E. coli; format: cell-based, Escherichia coli; conditions: concentration range at which 90% of growth inhibition occurs at 24 hours, Table S2
Protocol: as §1, with “For biological replicates, single colonies were started in liquid LB and grown for 16 h prior to experiments. E. coli MG1655 PNA growth experiments were carried out in M9 media (1x M9 minimal media salts solution (MP Biomedicals), 2.0 mM MgSO4, and 0.1 mM CaCl2 in sterile water) with 0.4% glucose.” left out

[4] = system: NDM-1 KPN; format: cell-based, Klebsiella pneumoniae; conditions: concentration range at which 90% of growth inhibition occurs at 24 hours, Table S2
Protocol: as §1, with “For biological replicates, single colonies were started in liquid LB and grown for 16 h prior to experiments. E. coli MG1655 PNA growth experiments were carried out in M9 media (1x M9 minimal media salts solution (MP Biomedicals), 2.0 mM MgSO4, and 0.1 mM CaCl2 in sterile water) with 0.4% glucose.” left out

[5] = system: MDR STm; format: cell-based, Salmonella enterica serovar Typhimurium; conditions: concentration range at which 90% of growth inhibition occurs at 24 hours, Table S2
Protocol: as §1, with “For biological replicates, single colonies were started in liquid LB and grown for 16 h prior to experiments. E. coli MG1655 PNA growth experiments were carried out in M9 media (1x M9 minimal media salts solution (MP Biomedicals), 2.0 mM MgSO4, and 0.1 mM CaCl2 in sterile water) with 0.4% glucose.” left out

CC1(C)S[C@@H]2[C@H](NC(=O)[C@H](N)c3ccccc3)C(=O)N2[C@H]1C(=O)O [AMP, ampicillin]
Antibiotic resistance characterization (R/S/I) [1]: R

O=C(N[C@H](CO)[C@H](O)c1ccc([N+](=O)[O-])cc1)C(Cl)Cl [CHL, chloramphenicol]
Antibiotic resistance characterization (R/S/I) [1]: S

NC[C@H]1O[C@H](O[C@H]2[C@H](O)[C@@H](O[C@H]3O[C@H](CO)[C@@H](O)[C@H](N)[C@H]3O)[C@H](N)C[C@@H]2N)[C@H](O)[C@@H](O)[C@@H]1O [KAN, kanamycin]
Antibiotic MIC90 [2]: > 64 µg/mL
Antibiotic MIC90 [3]: < 16 µg/mL
Antibiotic MIC90 ([1]; ESBL KPN, concentration range at which 90% of growth inhibition occurs at 24 hours, Table S2): > 64 µg/mL
Antibiotic MIC90 [4]: > 64 µg/mL
Antibiotic MIC90 [5]: < 16 µg/mL

CCn1cc(C(=O)O)c(=O)c2ccc(C)nc21 [NXA, nalidixic acid]
Antibiotic resistance characterization (R/S/I) [1]: R
